How the values were obtained:
[1] = Metabolic stability in human microsomes; type: in vitro ADME; conditions: after 45 min incubation
Method: (§1) All chemicals were purchased from different suppliers such as Sigma-Aldrich Chemicals (Sigma-Aldrich Corp., St. Louis, MO), Merck Chemicals (Merck KGaA, Darmstadt, Germany), and ABCR (abcr GmbH, Karlsruhe, Germany). THF was dried from benzophenone-sodium. ^1H and ^13C NMR spectra were recorded in CDCl3 or DMSO-d6 on a Varian Mercury 400 MHz spectrometer using tetramethylsilane as the internal standard. Coupling constants were reported as Hertz and all chemical shifts were recorded as δ (ppm). High-resolution mass spectra data (HRMS) were collected using Waters LCT Premier XE Mass Spectrometer operating in ESI(+) or ESI(−) method, also coupled to an AQUITY Ultra Performance Liquid Chromatography system (Waters Corporation) using a UV detector monitoring at 254 nm. Purity for all final compounds was >95%, according to the UPLC-MS method using a water/MeCN solvent gradient containing 0.1% formic acid (1%/90%); flow rate: 0.3 mL/min, column: Aquity BEH C18 column (2.1 × 100 mm^2, 1.7 mm). All microwave irradiation reactions were carried out in a Biotage Initiator + microwave apparatus with Biotage sealed microwave vials. […] Melting points of the compounds were determined using the SMP50 automated melting point apparatus (Stuart, Staffordshire, ST15 OSA, U.K.). […]

[2] = test system: plasma protein; assay: Plasma protein binding; type: in vitro ADME
Method: as §1

[3] = logD7.4; type: physicochemical; conditions: pH 7.4
Method: as §1

[4] = Solubility at the physiological pH; type: physicochemical
Method: as §1

[5] = Mouse PK, IV and PO; type: in vivo
Method: 1000 Mean Mice PK plasma concentrations after
Figure S2. Plasma concentrations vs. time profile of 85 after single dose IV (1 mg/kg) and PO
(10 mg/kg) administrations in male CD-1 mice. The PK study was done at Syngene
International, Ltd., India. […]

[6] = target: CYP2D6 (Homo sapiens, UniProt P10635); assay: CYP inhibition; type: in vitro ADME; conditions: read-out: Inhibition of human CYP 2D6
CYP2D6, sequence (P10635 whole entry): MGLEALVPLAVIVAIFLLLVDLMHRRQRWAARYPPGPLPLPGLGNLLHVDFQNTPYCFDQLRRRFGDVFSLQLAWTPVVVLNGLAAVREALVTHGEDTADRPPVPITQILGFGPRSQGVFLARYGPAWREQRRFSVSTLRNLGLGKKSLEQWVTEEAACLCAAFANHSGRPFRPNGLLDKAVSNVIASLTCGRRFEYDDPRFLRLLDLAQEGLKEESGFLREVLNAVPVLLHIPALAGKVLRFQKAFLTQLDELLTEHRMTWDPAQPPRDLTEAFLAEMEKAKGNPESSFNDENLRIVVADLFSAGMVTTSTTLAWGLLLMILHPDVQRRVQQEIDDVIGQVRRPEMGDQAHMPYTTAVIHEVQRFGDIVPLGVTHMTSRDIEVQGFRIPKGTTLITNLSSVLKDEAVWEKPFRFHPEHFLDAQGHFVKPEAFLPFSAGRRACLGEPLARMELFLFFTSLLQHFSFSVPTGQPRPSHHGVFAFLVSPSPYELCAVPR
Method: (§2) All chemicals were purchased from different suppliers such as Sigma-Aldrich Chemicals (Sigma-Aldrich Corp., St. Louis, MO), Merck Chemicals (Merck KGaA, Darmstadt, Germany), and ABCR (abcr GmbH, Karlsruhe, Germany). THF was dried from benzophenone-sodium. ^1H and ^13C NMR spectra were recorded in CDCl3 or DMSO-d6 on a Varian Mercury 400 MHz spectrometer using tetramethylsilane as the internal standard. Coupling constants were reported as Hertz and all chemical shifts were recorded as δ (ppm). High-resolution mass spectra data (HRMS) were collected using Waters LCT Premier XE Mass Spectrometer operating in ESI(+) or ESI(−) method, also coupled to an AQUITY Ultra Performance Liquid Chromatography system (Waters Corporation) using a UV detector monitoring at 254 nm. Purity for all final compounds was >95%, according to the UPLC-MS method using a water/MeCN solvent gradient containing 0.1% formic acid (1%/90%); flow rate: 0.3 mL/min, column: Aquity BEH C18 column (2.1 × 100 mm^2, 1.7 mm). All microwave irradiation reactions were carried out in a Biotage Initiator + microwave apparatus with Biotage sealed microwave vials. Flash chromatography was performed on a Combiflash Rf Automatic Flash Chromatography System with RediSep silica gel columns (12, 24, and 40 g) (Teledyne-Isco, Lincoln, NE) or Reveleris PREP Purification System (Buchi, New Castle, DE). Preparative chromatography was performed on Buchi US15C18HQ-250/212-C18 silica gel columns with the following devices; Reveleris PREP Purification System or PuriFlash 4250 System (Interchim, Montluçon, France). Melting points of the compounds were determined using the SMP50 automated melting point apparatus (Stuart, Staffordshire, ST15 OSA, U.K.). The in vitro ADME and in vivo mouse PK studies were conducted at Syngene International Ltd., Bangalore, India. General synthetic procedures (Methods 1–9) and experimental data for all intermediate compounds can be found in the Supporting Information.

[7] = target: CYP3A4 (Homo sapiens, UniProt P08684); assay: CYP inhibition; type: in vitro ADME; conditions: read-out: Inhibition of human CYP 3A4
CYP3A4, sequence (P08684 whole entry): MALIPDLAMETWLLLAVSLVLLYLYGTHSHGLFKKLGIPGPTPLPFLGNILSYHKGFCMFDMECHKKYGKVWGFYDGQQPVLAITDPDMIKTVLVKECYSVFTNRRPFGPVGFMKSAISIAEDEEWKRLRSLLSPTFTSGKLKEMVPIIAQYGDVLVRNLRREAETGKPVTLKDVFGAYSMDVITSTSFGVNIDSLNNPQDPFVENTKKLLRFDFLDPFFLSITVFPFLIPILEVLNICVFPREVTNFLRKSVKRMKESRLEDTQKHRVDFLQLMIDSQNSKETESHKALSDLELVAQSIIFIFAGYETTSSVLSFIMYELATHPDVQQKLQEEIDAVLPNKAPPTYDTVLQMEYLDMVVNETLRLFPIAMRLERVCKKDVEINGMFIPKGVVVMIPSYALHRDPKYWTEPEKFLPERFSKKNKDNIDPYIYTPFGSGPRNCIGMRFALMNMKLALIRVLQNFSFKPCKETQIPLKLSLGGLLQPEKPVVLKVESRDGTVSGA
Method: as §2

[8] = target: CYP2C9 (Homo sapiens, UniProt P11712); assay: CYP inhibition; type: in vitro ADME; conditions: read-out: Inhibition of human CYP 2C9
CYP2C9, sequence (P11712 whole entry): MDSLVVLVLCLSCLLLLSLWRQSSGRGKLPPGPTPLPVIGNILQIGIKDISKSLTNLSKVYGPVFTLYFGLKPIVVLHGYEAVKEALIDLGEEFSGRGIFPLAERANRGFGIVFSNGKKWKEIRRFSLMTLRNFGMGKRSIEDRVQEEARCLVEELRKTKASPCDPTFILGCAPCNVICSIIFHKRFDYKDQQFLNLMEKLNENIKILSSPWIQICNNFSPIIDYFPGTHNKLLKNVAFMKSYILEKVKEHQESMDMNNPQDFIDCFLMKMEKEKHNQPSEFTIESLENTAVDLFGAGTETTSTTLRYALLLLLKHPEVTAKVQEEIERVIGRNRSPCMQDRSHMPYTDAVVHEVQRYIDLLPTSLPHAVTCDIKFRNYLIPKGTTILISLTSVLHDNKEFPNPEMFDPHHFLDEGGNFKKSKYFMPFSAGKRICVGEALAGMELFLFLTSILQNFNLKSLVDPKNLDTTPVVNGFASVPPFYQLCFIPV
Method: as §2

[9] = test system: Huh7, Mahlavu and MCF7; assay: SRB cytotoxicity, summary for all three cell lines; type: cell-based; conditions: Homo sapiens; one value or range for Huh7, Mahlavu and MCF7 together; read-out: IC50 against all three cell lines
Method: Mahlavu, FOCUS, SNU475 (1000 cell/well in 150 μL/well); Huh7, MCF7 (2500 cell/well in 150 μL/well); HepG2, Hep3B, SKBR3 (3000 cell/well in 150 μL/well); PLC-PRF-5, Hep40 (5000 cell/well in 150 μL/well); MDA-MB-231, MDA-MB-468, MCF10A (6000 cell/well in 150 μL/well); and ZR-75 (7500 cell/well in 150 μL/well) were cultured in 96-well plates and were inoculated in an incubator for 24 hours. The compounds were dissolved in dimethyl sulfoxide (DMSO) (Sigma, St Louis, MO) as a 20 mM stock solution. The treatment of cells with the compounds was done in a concentration range starting from 40 to 2.5 μM. The compounds which were below 2.5 μM were tested in a concentration range from 2.5 to 0.15 μM. End of the 72h compound treatment, the cells were fixed using 10% (v/v) trichloroacetic acid (MERCK) for an hour and washed with ddH2O, and left for air-drying. The fixed plates were stained with 50 μL of sulforhodamine B (SRB) solution (Sigma) at RT for 10 min. To remove unbound SRB dye, acetic acid was used to wash cells three times and left for drying. The protein-bound SRB was solubilized with 10 mM Tris-base (Sigma) and their absorbance was measured with a 96-well plate reader at 515 nm wavelength (ELx800, Biotek). The IC50 values of compounds were calculated in comparison with control group DMSO. Data with R^2 values larger than 0.9 are considered significant.

[10] = male, CD-1, plasma, 1 mg/kg, Mouse IV PK, 1 mpk
[11] = male, CD-1, plasma, 10 mg/kg, Mouse PO PK, 10 mpk

Cc1ccccc1COc1ccc(-c2ccnn2-c2ccc(Cl)cc2)cc1 [compound 85, 1-(4-Chlorophenyl)-5-(4-((2-methylbenzyl)oxy)phenyl)-1H-pyrazole]
Metabolic stability, remaining [1]: 55% | plasma protein-bound [2]: 99.9% | logD [3]: 6.64 | Solubility [4]: sparingly soluble | Co ([5]; Mouse IV PK, 1 mpk): 393 ng/mL | AUC [5, 10]: 436 ng·h/mL | Vd [5, 10]: 13.2 L/kg | half-life [5, 10]: 3.85 h | clearance ([5]; male, CD-1, plasma, 1 mg/kg, Mouse IV PK, 1 mpk, read-out: Clp (converted)): 38.8 mL/min/kg | AUC [5, 11]: 192 ng·h/mL | Cmax [5, 11]: 19.3 ng/mL | bioavailability [5, 11]: 5% | half-life [5, 11]: 6.64 h | inhibition at 10 µM [6]: 22.2% | inhibition at 10 µM [7]: 0% | inhibition at 10 µM [8]: 7.3% | IC50 [9]: 0.7 to 14.4 µM

From publication PMC9583322, “Vicinal Diaryl-Substituted Isoxazole and Pyrazole Derivatives with In Vitro Growth Inhibitory and In Vivo Antitumor Activity” (ACS Omega, 2022)
